Results taken from PubChem BioAssay (NCI).
Values joined by “and” are separate entries in the source; they are usually repeats but may differ in a detail not shown here. Equal values may be shown once.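 Cultured in 96-well plates, cells were exposed to test compound for 48 hours across five concentrations. At the GI50, growth is halved. TGI marks complete inhibition of growth.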

Experiments:
Experiment in all cases: inhibition of tumour cell growth, NCI panel, 48 h
SW-620 colon = system: SW-620 colon
IGROV1 ovarian = system: IGROV1 ovarian
HS 578T breast = system: HS 578T breast
UACC-257 melanoma = system: UACC-257 melanoma
NCI-H23 lung = system: NCI-H23 lung
HCC-2998 colon = system: HCC-2998 colon
SK-MEL-5 melanoma = system: SK-MEL-5 melanoma
OVCAR-3 ovarian = system: OVCAR-3 ovarian
K-562 leukemia = system: K-562 leukemia
OVCAR-8 ovarian = system: OVCAR-8 ovarian

SMILES | GI50 (SW-620 colon) | TGI (SW-620 colon) | GI50 (IGROV1 ovarian) | TGI (IGROV1 ovarian) | GI50 (HS 578T breast) | TGI (HS 578T breast) [µM] | GI50 (UACC-257 melanoma) | TGI (UACC-257 melanoma) | GI50 (NCI-H23 lung) | TGI (NCI-H23 lung) | GI50 (HCC-2998 colon) | TGI (HCC-2998 colon) | GI50 (SK-MEL-5 melanoma) | TGI (SK-MEL-5 melanoma) | GI50 (OVCAR-3 ovarian) | TGI (OVCAR-3 ovarian) | GI50 (K-562 leukemia) | TGI (K-562 leukemia) | GI50 (OVCAR-8 ovarian) | TGI (OVCAR-8 ovarian)
COc1cc2c(cc1Nc1nc(N3CCc4ccccc43)c3cc[nH]c3n1)N(C(=O)CN(C)C)CC2 | 0.35 µM | 0.8 µM | 10.9 µM | 17.1 µM | 4.52 µM | 11.4 | 4.25 µM | 9.3 µM | 4.98 µM | 14.6 µM | 3.13 µM | 7.33 µM | 4.26 µM | 11 µM | 2.08 µM | 4.98 µM | 0.478 µM | 1.2 µM | 1.67 µM | 3.84 µM
O=C1Oc2ccccc2C(=O)/C1=C1/C=C(c2ccccc2)SS1 | – | > 100 µM | – | > 100 µM | – | > 100 | – | > 100 µM | – | > 100 µM | – | > 100 µM | – | > 100 µM | – | > 100 µM | – | > 100 µM | – | > 100 µM
COc1cc2c(N3CCN(C(=O)Nc4ccc(OC(C)C)cc4)CC3)ncnc2cc1OCCCN1CCCCC1 | 14.6 µM | 38.8 µM | 31.8 µM | 97.7 µM | 10.4 µM | 61.1 | 10.3 µM | 23.6 µM | 14.6 µM | 39.1 µM | 19.6 µM | 44.3 µM | 13.2 µM | 26 µM | 22.2 µM | > 59 µM | 4.98 µM | > 100 µM | 20.9 µM | 99.2 µM
CNCc1cccc2c1OCCOCCOCCN(C)S(=O)(=O)c1ccc(cc1)-c1cnc(N)c(n1)C(=O)N2 | 1.66 µM | 4.25 µM | 0.58 µM | 12.8 µM | 0.663 µM | 3.64 | 2.69 µM | 5.64 µM | 2.47 µM | 27.9 µM | 15.5 µM | 30.3 µM | 1.35 µM | 2.91 µM | 1.59 µM | 9.79 µM | 0.622 µM | 10.3 µM | 1.88 µM | 4.46 µM
COC1N(C2CC(O)C(CO)O2)C(=O)NC(=O)C1(F)Br (configuration not stated) | 27.7 µM | 50 µM and > 100 µM | > 50 µM | > 100 µM | – | > 95.5 | 42.8 µM | 50 µM and > 100 µM | 13.3 µM | 50 µM and > 100 µM | 1.14 µM | 50 µM and 98 µM | 38.2 µM | 50 µM and > 89.7 µM | > 50 µM | > 100 µM | – | 50 µM and > 100 µM | 22.5 µM | 50 µM and > 100 µM
CC1(C)OC[C@@H]([C@@]2(CO[Si](c3ccccc3)(c3ccccc3)C(C)(C)C)CC=CC(=O)O2)O1 | 4.55 µM | 46.7 µM | 5.42 µM | 80.2 µM | 9.01 µM | > 100 | 3.3 µM | 9.95 µM | 10.2 µM | 40.2 µM | 13.7 µM | 28.9 µM | 4.65 µM | 19.4 µM | 4.3 µM | > 100 µM | 3.91 µM | > 100 µM | 5.05 µM | > 100 µM
Cc1nn(-c2ccc(Cl)cc2)c2ncnc(N/N=C/c3ccccc3O)c12 | 1.35 µM and 0.505 µM | > 100 µM | 0.534 µM and 0.485 µM | 10.5 µM and 8.48 µM | 4.12 µM and 2.12 µM | > 88.1 | 2.68 µM and 1.31 µM | 16.1 µM and 39.3 µM | 2.05 µM and 0.721 µM | > 55 µM | 0.464 µM and 0.742 µM | > 100 µM | 0.728 µM and 0.509 µM | 2.45 µM and 1.47 µM | 0.38 µM and 0.278 µM | 19.7 µM and 29.4 µM | 1.01 µM and 0.435 µM | > 100 µM | 0.42 µM and 0.361 µM | 43.2 µM and > 100 µM
O=C1/C(=C/c2ccc(Cl)c(Cl)c2)CN(C(=O)CCN2CCC(=NO)CC2)C/C1=C\c1ccc(Cl)c(Cl)c1 | 0.247 µM | 0.708 µM | 0.534 µM | 1.41 µM | 1.43 µM | 5.68 | 1.74 µM | 3.86 µM | 1.04 µM | 3.01 µM | 0.807 µM | 2.11 µM | 1.58 µM | 3 µM | 0.574 µM | 1.64 µM | 0.191 µM | – | 0.651 µM | 2.62 µM
Cn1nccc1Nc1nccc(-c2ccn([C@H](CO)c3ccc(Cl)c(F)c3)c(=O)c2)n1 | 5.02 µM | 30.4 µM | 22.9 µM | > 100 µM | 30.8 µM | > 100 | 0.158 µM | > 100 µM | 4.47 µM | > 100 µM | 0.588 µM | 23.7 µM | 12.5 µM | 43.3 µM | 37.5 µM | > 100 µM | 22.5 µM | > 100 µM | 6.56 µM | > 100 µM
Nc1ncc(Cc2ccc3c(c2)OCO3)c(N)n1 | – | > 100 µM | – | > 100 µM | – | > 100 | – | > 100 µM | – | > 100 µM | – | > 100 µM | – | > 100 µM | – | > 100 µM | – | > 100 µM | – | > 100 µM
CC(C)(CO)CNC(=O)c1ccc2[nH]c(O)c(N=Nc3ccc(S(N)(=O)=O)cc3)c2c1 | > 25 µM | > 25 µM | > 25 µM | > 25 µM | > 25 µM | > 25 | > 25 µM | > 25 µM | > 25 µM | > 25 µM | > 25 µM | > 25 µM | > 25 µM | > 25 µM | > 25 µM | > 25 µM | > 25 µM | > 25 µM | > 25 µM | > 25 µM
Cc1c(C(=N)C(C#N)C#N)c(=N)oc2c1ccc1ccccc12 | 18.4 µM | 56.1 µM | 7.76 µM | 53.4 µM | 10.5 µM | 66.2 | 28.6 µM | > 100 µM | 16.8 µM | > 100 µM | 18 µM | 39.3 µM | 13.3 µM | 29.8 µM | 14.7 µM | 40.8 µM | 19.4 µM | > 100 µM | 23.9 µM | > 100 µM
COc1ccc(OC)c(NCC(=O)n2nc(/C=C\c3ccc(O)c(OC)c3)cc2/C=C\c2ccc(O)c(OC)c2)c1 | 2.03 µM | 5.48 µM | 2.91 µM | 21 µM | 2.31 µM | 19.2 | 3.28 µM | 14.8 µM | 2.62 µM | 31.7 µM | 2.04 µM | 3.98 µM | 1.66 µM | 4.91 µM | 2.58 µM | 13.9 µM | 0.729 µM | > 100 µM | 3.02 µM | 11.9 µM
